# Tests used:
# [1] = target: T1, PKD2 (Homo sapiens, UniProt Q9BZL6); experiment: In vitro radiometric PKD kinase assay; assay type: biochemical; set-up: purchased SignalChem; conditions: for IC50: radiometric kinase assay, mean ± S.E.M.
# T1 sequence (Q9BZL6 1-878): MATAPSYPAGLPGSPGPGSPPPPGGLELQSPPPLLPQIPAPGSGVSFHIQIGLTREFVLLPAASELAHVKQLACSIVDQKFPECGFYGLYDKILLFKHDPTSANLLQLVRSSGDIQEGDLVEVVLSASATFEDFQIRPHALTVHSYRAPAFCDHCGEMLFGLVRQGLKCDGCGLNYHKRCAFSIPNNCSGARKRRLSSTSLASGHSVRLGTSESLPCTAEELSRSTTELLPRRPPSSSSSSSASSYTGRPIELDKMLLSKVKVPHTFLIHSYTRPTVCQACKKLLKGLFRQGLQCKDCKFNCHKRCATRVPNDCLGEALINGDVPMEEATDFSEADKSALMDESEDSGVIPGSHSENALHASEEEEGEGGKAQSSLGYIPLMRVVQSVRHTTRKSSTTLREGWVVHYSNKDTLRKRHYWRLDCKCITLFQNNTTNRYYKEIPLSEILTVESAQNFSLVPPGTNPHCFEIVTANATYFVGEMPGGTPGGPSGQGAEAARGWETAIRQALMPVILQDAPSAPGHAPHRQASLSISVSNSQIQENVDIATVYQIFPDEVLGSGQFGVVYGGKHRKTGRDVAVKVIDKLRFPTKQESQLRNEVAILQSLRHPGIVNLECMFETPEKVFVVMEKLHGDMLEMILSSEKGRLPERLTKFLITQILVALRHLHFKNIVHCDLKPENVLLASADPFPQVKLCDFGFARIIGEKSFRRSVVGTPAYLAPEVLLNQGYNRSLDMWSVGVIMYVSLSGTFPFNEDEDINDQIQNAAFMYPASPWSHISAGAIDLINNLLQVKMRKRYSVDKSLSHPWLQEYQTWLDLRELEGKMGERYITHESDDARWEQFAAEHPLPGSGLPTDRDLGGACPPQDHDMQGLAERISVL
# Experimental: In vitro radiometric kinase assays were conducted as previously described. Briefly, 1 μCi [γ-^32P] ATP (PerkinElmer Life Sciences), 70 μM ATP, 50 ng purified recombinant human PKD1 (Biomol International, Plymouth Meeting, PA), PKD2 (SignalChem, Richmond, BC, Canada), or CAMKIIα (Enzo Life Sciences) or 75 ng PKD3 (Enzo Life Sciences), and 2.5 μg syntide-2 (Sigma) in 50 μl kinase buffer containing 50 mM Tris-HCl, pH 7.5, 4 mM MgCl2, and 10 mM β-mercaptoethanol. For the CAMK assay, 0.5 mM CaCl2 and 30 ng/μl calmodulin were pre-incubated for 10 min on ice, and then added to each reaction mixture. The reaction was incubated at 30°C for 10 min, and 25 μl of the reaction mixture was then spotted onto Whatman P81 filter paper (Whatman Inc., Clifton, NJ). The filter papers were washed 3 times in 0.5% phosphoric acid, air-dried, and counted using a Beckman LS6500 multipurpose scintillation counter (Beckman).
# The in vitro inhibitory activities of the novel compounds toward PKD were determined using radiometric PKD kinase activity assays. Recombinant human PKD1, -2, or -3 was incubated with the substrate, syntide-2, in the presence of 10 different concentrations of each compound. IC50 values were determined for each compound by plotting percent PKD activity versus compound concentration for each point.
# [2] = target: T2, PKD1 (Homo sapiens, UniProt Q15139); experiment: Inhibition of PMA-induced endogenous PKD1 activation in LNCaP cells (Western blot); assay type: cell-based; set-up: endogenous in cells; host or cells: LNCaP; conditions: 45 min pretreatment, 100 nM PMA 20 min, densitometry of Western blots, mean ± S.E.M., read-out: Cellular IC50, inhibition of PKD1 autophosphorylation at S916
# T2 sequence (Q15139 1-912): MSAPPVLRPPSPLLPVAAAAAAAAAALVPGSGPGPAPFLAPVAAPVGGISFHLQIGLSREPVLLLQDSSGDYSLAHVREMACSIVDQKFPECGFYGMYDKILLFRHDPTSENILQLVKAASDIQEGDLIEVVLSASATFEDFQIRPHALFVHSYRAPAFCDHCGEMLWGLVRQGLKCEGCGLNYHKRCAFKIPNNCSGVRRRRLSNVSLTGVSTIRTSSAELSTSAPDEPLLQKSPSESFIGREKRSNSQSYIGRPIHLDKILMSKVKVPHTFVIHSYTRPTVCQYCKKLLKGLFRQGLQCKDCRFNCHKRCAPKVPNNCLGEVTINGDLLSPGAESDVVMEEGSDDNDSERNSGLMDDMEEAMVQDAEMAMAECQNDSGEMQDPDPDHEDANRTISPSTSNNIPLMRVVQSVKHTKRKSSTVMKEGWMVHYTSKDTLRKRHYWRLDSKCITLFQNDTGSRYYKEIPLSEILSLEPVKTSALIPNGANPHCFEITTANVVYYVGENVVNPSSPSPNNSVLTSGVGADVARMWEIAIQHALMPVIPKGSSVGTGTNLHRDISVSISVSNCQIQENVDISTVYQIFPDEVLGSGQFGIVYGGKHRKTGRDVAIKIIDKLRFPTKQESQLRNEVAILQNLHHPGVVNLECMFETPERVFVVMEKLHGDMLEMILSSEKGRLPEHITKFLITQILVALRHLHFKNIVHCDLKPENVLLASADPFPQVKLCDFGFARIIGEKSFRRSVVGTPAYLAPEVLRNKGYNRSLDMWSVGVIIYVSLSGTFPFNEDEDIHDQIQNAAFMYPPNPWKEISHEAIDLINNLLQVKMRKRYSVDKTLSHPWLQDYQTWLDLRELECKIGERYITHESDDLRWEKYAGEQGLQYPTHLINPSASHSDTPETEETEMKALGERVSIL
# Experimental: LNCaP cells were maintained as described previously. Western blot analysis was carried out as previously reported. Briefly, cells were lysed in lysis buffer containing 200 mM Tris-HCl, pH 7.4, 100 μM 4-(2-aminoethyl) benzenesulfonyl fluoride, 1 mM EGTA, and 1% Triton X-100. Protein concentration was determined using the BCA Protein Concentration Assay reagent kit (Pierce) and then equal amounts of protein were subjected to SDS-PAGE followed by electrotransfer to nitrocellulose membranes. Membranes were blocked with 5% nonfat milk in Tris-buffered saline and then probed with primary antibodies for either p-S916-PKD1 (Millipore), p-S742-PKCμ/PKD (Biosource), or GAPDH, followed by anti-mouse or anti-rabbit secondary antibodies conjugated to horseradish peroxidase (Bio-Rad). The enhanced chemiluminescence (ECL) Western blotting detection system (Amersham Biosciences) was used to facilitate detection of protein bands.
# LNCaP cells were pretreated with indicated concentrations of the five analogs for 45 min, then stimulated with 100 nM PMA for 20 min. Cell lysates were immunoblotted for p-S916-PKD1 and p-S742-PKD1. GAPDH was blotted as a loading control. The experiment was repeated at least three times and representative blots are shown.
# [3] = tested on: PC3 cells; experiment: Cyclin D1 and cyclin D3 levels (Western blot); assay type: cell-based
SMILES,fold stronger inhibition of PKD2 than CID755673 [1],IC50 [1],IC50 [2],cyclin D1 and D3 levels ([3]; 48 hrs),cell death ([3]; 10 μM),fold reduction of potency for PKD2 ([1]; versus kb-NB142-70)
O=C1NCCSc2c1sc1ccc(O)cc21 [kb-NB142-70],about 4 fold,58.7 ± 4.2 nM,2200 ± 600 nM,–,–,–
"O=C1NCCCc2c1oc1ccc(O)cc21 [CID755673, 7-Hydroxy-2,3,4,5-tetrahydro-[1]benzoxolo[2,3-c]azepin-1-one]",–,–,–,induced cyclin D1 and D3 expression in a concentration-dependent manner,–,–
O=C1NCCSc2c1sc1ccc(O)c(I)c21 [kb-NB165-31],–,163 ± 20.5 nM,8600 ± 2000 nM,–,–,–
COc1ccc2sc3c(c2c1)SCCNC3=O [kb-NB165-09],–,142 ± 7.4 nM,3100 ± 500 nM,–,–,–
O=C1NCCCSc2c1sc1ccc(O)cc21 [kb-NB165-92],–,101 ± 10.9 nM,2600 ± 700 nM,–,caused significant cell death,2-4 fold
COc1ccc2sc3c(c2c1)SCCCNC3=O [kb-NB184-02],–,463 ± 38.2 nM,18600 ± 2000 nM,–,–,–
